Results as given in patent US8314247B2, “Hydrazone derivative” (Mitsubishi Tanabe Pharma Corporation, priority 2007, dated 2012).

Molecular target: T1, human-liver type GST-GK (Homo sapiens, UniProt P35557)
T1 construct: made in house; host or cells: E. coli
T1 sequence (P35557 1-466 isoform P35557-2): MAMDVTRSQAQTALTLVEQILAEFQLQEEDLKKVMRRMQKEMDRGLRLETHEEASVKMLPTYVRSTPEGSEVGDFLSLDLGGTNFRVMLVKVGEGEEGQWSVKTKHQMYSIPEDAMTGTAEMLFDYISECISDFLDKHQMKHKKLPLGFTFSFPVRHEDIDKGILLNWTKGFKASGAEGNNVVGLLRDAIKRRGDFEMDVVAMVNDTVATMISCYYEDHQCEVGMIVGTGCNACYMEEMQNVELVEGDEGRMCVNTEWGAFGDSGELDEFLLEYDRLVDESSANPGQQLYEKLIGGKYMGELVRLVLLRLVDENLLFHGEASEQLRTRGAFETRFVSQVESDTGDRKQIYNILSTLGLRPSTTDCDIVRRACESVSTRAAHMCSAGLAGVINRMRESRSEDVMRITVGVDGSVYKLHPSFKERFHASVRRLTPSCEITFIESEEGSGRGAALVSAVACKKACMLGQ
Experiment: Glucokinase activation effect (G6PDH-coupled NADPH assay)
Assay type: biochemical
Conditions: glucose 5 mM, ATP 5 mM, 30° C., NADPH monitored at 340 nm for 10 minutes, compound 0.01 to 100 μM (5% DMSO)
Description: A glucokinase activity was examined by measuring the amount of NADPH obtained in generating 6-phosphogluconic acid from […], not by directly measuring the generated glucose-6-phosphoric acid. The glucokinase enzyme used in the examination was human-liver type GST-GK expressed by E. Coli. The measurement of the activity was carried out by the following procedures. Specifically, 30 mM HEPES buffer (pH7.4) containing 30 mM MgCl2, 30 mM KCl, 1 mM DTT, 5 mM NADP (Nacalai), 0.7 mU/mL G6PDH (Roche 737-232 grade II from yeast) and 0.17 μL/mL GST-GK was prepared as a reaction solution. An evaluating compound dissolved in DMSO was added to the reaction solution to give a final concentration of 0.01 to 100 μM (5% DMSO). Thereto was added glucose (final concentration of 5 mM) as a substrate and was added ATP (final concentration of 5 mM) to proceed the reaction. The reaction temperature is 30° C. and a generation of NADPH was monitored by changes of absorbance of 340 nm. An increase of absorbance for 10 minutes after starting reaction was measured and the blank-corrected value was used as a GK activity (mOD/min). EC50 level was calculated by a GK activity level in an addition of the evaluating compound at each concentration.

Row | SMILES | EC50
1 | CN(C)S(=O)(=O)c1cnc(NC(=O)/C(=N/N2CCCC2)c2ccc(S(=O)(=O)C3CC3)cc2)s1 [Example 64] | 120 nM
2 | CN1CCN(S(=O)(=O)c2cnc(NC(=O)/C(=N/N3CCCC3)c3ccc(S(=O)(=O)C4CC4)cc3)s2)CC1 [Example 27] | 220 nM
3 | O=C(Nc1ncc(Cl)s1)/C(=N/N1CCOCC1)c1ccc(S(=O)(=O)C2CC2)cc1 [Example 42] | 110 nM
4 | O=C(Nc1ncc(F)s1)/C(=N/N1CCOCC1)c1ccc(S(=O)(=O)C2CC2)cc1 [Example 2] | 360 nM

The next lines start with the values.

Row | EC50 | SMILES
5 | 30 nM | O=C(Nc1ncc(Br)s1)/C(=N/N1CCCC1)c1ccc(S(=O)(=O)C2CC2)cc1 [Example 24]
6 | 70 nM | COc1ccc2nc(NC(=O)/C(=N/N3CCCC3)c3ccc(S(=O)(=O)C4CC4)cc3)sc2n1 [Example 1]
